Counter-ions that a name gives are not always drawn.

This assay deals with human tryptase. Nature of the assay: Inhibition of human tryptase (equilibrium, chromogenic substrate tos-Gly-Pro-arg-pNA). To be noted: in the presence of substrate; heparin 0.1-50 μg/ml; cleavage monitored at 405 nm; read-out: Klapp (apparent dissociation constant Kiapp). In kind it is biochemical. From the text:
The documented pathophysiological effects of mast cell tryptase are caused directly by the enzymatic activity of the protease. Accordingly, they are reduced or blocked by inhibitors which inhibit the enzymatic activity of the tryptase. A suitable measure for the affinity of a reversible inhibitor to the target protease is the equilibrium dissociation constant Ki of the enzyme-inhibitor complex. This Ki value can be determined via the effect of the inhibitor on the tryptase-induced cleavage of a chromogenic peptide-p-nitroanilide substrate or a fluorogenic peptide-aminomethylcoumarin substrate.
The dissociation constants for the tryptase-inhibitor complexes are determined under equilibrium conditions in accordance with the general proposals of Bieth (Bieth J G, Pathophysiological Interpretation of kinetic constants of protease inhibitors, Bull. Europ. Physiopath. Resp. 16:183-195, 1980) and the methods of Sommerhoff et al. (Sommerhoff C P et al., A Kazal-type inhibitor of human mast cell tryptase: Isolation from the medical leech Hirudo medicinalis, characterization, and sequence analysis, Biol. Chem. Hoppe-Seyler 375: 685-694, 1994).
Human tryptase is isolated from lung tissue or prepared recombinantly; the specific activity of the protease, determined by titration, is usually greater than 85% of the theoretical value. […]

Turning to `CCOC(=O)CN(CCNC(=O)OCC#Cc1ccc(C#CCOC(=O)NCCN(CC(=O)OCC)C(=O)CCc2ccc(CN)cc2)cc1)C(=O)CCc1ccc(CN)cc1` [Compound 1, 1,4-Bis-{N-[3-(4-aminomethyl-phenyl)-propionyl]-N-(ethoxycarbonyl-methyl)-amino-3-(ethyl-aminocarbonyloxy)-prop-1-ynyl}-benzene dihydrochloride], the Ki was 35 nM. With `CCOC(=O)CN(CCNC(=O)OCC#CCOC(=O)NCCN(CC(=O)OCC)C(=O)CCc1ccc(CN)cc1)C(=O)CCc1ccc(CN)cc1` [Compound 3, 1,4-Bis{N-[3-(4-(aminomethyl-phenyl)-propionyl]-N-(ethoxycarbonyl-methyl)-amino-3-(ethyl-aminocarbonyloxy)}-2-butynedihydrochloride], the Ki came out at 5.4 nM.

Values taken from US20040087792A1, “Tryptase-inhibitors” (priority 2001, published 2004).
